Experimental data published in patent US20250092056A1, “URACIL DERIVATIVES HAVING VIRUS REPLICATION INHIBITORY ACTIVITY AND PHARMACEUTICAL COMPOSITION COMPRISING THE SAME” (Shionogi & Co., Ltd., priority 2022, published 2025).
Like-named read-outs stand apart in the source and are kept apart here.

Key:
[1] = target: Recombinant SARS-CoV-2 3CL Protease (Severe acute respiratory syndrome coronavirus 2 (2019-nCoV) (SARS-CoV-2), UniProt P0DTD1); experiment: biochemical; type: biochemical
SARS-CoV-2 = experiment: Cytopathic effect (CPE) suppression effect confirmation test using HEK293T/ACE2-TMPRSS2 cells; type: cell-based; details: Severe acute respiratory syndrome coronavirus 2, HEK-293T, 72 h
[2] = 50% SARS-CoV-2 3CL protease inhibitory concentration, read-out: IC50
[3] = read-out: EC50 (50% SARS-CoV-2 infected cell death inhibitory concentration), class, HEK293T/ACE2-TMPRSS2 cells, CPE suppression, CellTiter-Glo 2.0 after 3 days culture
[4] = HEK293T/ACE2-TMPRSS2 cells, CPE suppression, CellTiter-Glo 2.0 after 3 days culture, read-out: EC50 (50% SARS-CoV-2 infected cell death inhibitory concentration), class
[5] = read-out: EC50 (50% SARS-CoV-2 infected cell death inhibitory concentration), HEK293T/ACE2-TMPRSS2 cells, CPE suppression, CellTiter-Glo 2.0 after 3 days culture

Compound | IC50 [1, 2] [nM] | EC50 (SARS-CoV-2; [3]) [nM] | EC50 (SARS-CoV-2; [4]) [nM] | IC50 [1] [nM] | EC50 (SARS-CoV-2; [5]) [nM]
Cc1cncc(-n2c(=O)c(-c3ccc(F)c(Cl)c3)c(Oc3ccc(F)cc3Cl)n(CC#N)c2=O)c1 [Compound I-030] | < 10 | < 100 |  |  | 
Cc1cncc(-n2c(=O)c(Cc3cc(F)c(F)c(F)c3)c(-c3ccc(C(F)(F)F)c(Cl)c3)n(CC#N)c2=O)c1 [Compound I-031] | < 10 | < 100 |  |  | 
Cc1cc(-n2c(=O)c(-c3cc(F)c(F)c(Cl)c3)c(N3CC4(CCOCC4)C3)n(CC#N)c2=O)cc(=O)[nH]1 [Compound I-032] | < 10 | 100 to 1000 |  |  | 
Cc1cc(-n2c(=O)c(-c3cc(F)c(F)c(Cl)c3)c(N3CC4(C3)CC(F)(F)C4)n(CC#N)c2=O)cc(=O)[nH]1 [Compound I-033] | < 10 | 100 to 1000 |  |  | 
Cc1cc(-n2c(=O)c(-c3cc(F)c(F)c(Cl)c3)c(N3CCC(C(F)(F)F)CC3)n(CC#N)c2=O)cc(=O)[nH]1 [Compound I-034] | 10 to 100 |  | < 100 |  | 
Cc1cnnc(-n2c(=O)c(Cc3cc(F)c(F)c(F)c3)c(N3C[C@H]4C[C@@H](C3)O4)n(CC#N)c2=O)c1 [Compound I-035] | > 100 | 100 to 1000 |  |  | 
Cc1cnnc(-n2c(=O)c(Cc3cc(F)c(F)c(F)c3)c(N3CC4(CCOC4)C3)n(CC#N)c2=O)c1 [Compound I-036] | > 100 | 100 to 1000 |  |  | 
N#CCn1c(N2CC3(CCOC3)C2)c(Cc2cc(F)c(F)c(F)c2)c(=O)n(-c2cnc3ccccn23)c1=O [Compound I-037] | 10 to 100 |  | 100 to 1000 |  | 
N#CCn1c(N2CC3CCC(CC3)C2)c(Cc2cc(F)c(F)c(F)c2)c(=O)n(-c2cnc3ccccn23)c1=O [Compound I-038] |  | < 100 |  | 10 to 100 | 
Cc1cnnc(-n2c(=O)c(Cc3cc(F)c(F)c(F)c3)c(N3Cc4ccccc4C3)n(CC#N)c2=O)c1 [Compound I-039] | < 10 | < 100 |  |  | 
N#CCn1c(N2Cc3ccccc3C2)c(Cc2cc(F)c(F)c(F)c2)c(=O)n(-c2cnc3ccccn23)c1=O [Compound I-040] | < 10 | < 100 |  |  | 
CCCOc1cc(Cl)cc(-c2c(N3Cc4ccccc4C3)n(CC#N)c(=O)n(-c3cncc(C)c3)c2=O)c1 [Compound I-041] | < 10 | < 100 |  |  | 
Cc1cncc(-n2c(=O)c(-c3cccc(Cl)c3)c(N3Cc4ccccc4C3)n(CC#N)c2=O)c1 [Compound I-042] | < 10 | < 100 |  |  | 
N#CCn1c(N2CC3(CCOC3)C2)c(-c2ccc(F)c(Cl)c2)c(=O)n(-c2cnc3ccccn23)c1=O [Compound I-043] | 10 to 100 |  | 100 to 1000 |  | 
Cc1cncc(-n2c(=O)c(-c3ccc(F)c(Cl)c3)c(N3CCC4(CCNC4=O)CC3)n(CC#N)c2=O)c1 [Compound I-044] | < 10 | 100 to 1000 |  |  | 
Cc1cncc(-n2c(=O)c(-c3ccc(F)c(Cl)c3)c(N3CC4(CCOC4)C3)n(CC#N)c2=O)c1 [Compound I-045] | < 10 | < 100 |  |  | 
Cc1cncc(-n2c(=O)c(Cc3cc(F)c(F)c(F)c3)c(/C=C/CO)n(CC#N)c2=O)c1 [Compound I-047] | > 100 | 100 to 1000 |  |  | 
Cc1cncc(-n2c(=O)c(Cc3cc(F)c(F)c(F)c3)c(-c3ccc(C)c(C)c3)n(C3(C#N)CC3)c2=O)c1 [Compound I-049] | 10 to 100 |  | 100 to 1000 |  | 
Cc1cncc(-n2c(=O)c(Cc3cc(F)c(F)c(F)c3)c(CCCO)n(CC#N)c2=O)c1 [Compound I-052] | 10 to 100 |  | < 100 |  | 
N#CCn1c(N2Cc3cn[nH]c3C2)c(Cc2cc(F)c(F)c(F)c2)c(=O)n(-c2cc[nH]c(=O)c2)c1=O [Compound I-053] | 32 |  |  |  | 2610
N#CCn1c(Cl)c(-c2ccc(F)c(Cl)c2)c(=O)n(-c2cncc(Cl)c2)c1=O [Compound I-055] | 10 to 100 |  | 100 to 1000 |  | 
Cc1ccc(-c2c(Cc3cc(F)c(F)c(F)c3)c(=O)n(-c3cncc(Cl)c3)c(=O)n2CC#N)cc1C [Compound I-058] | < 10 | < 100 |  |  | 
N#CCn1c(N2CC3(CCOC3)C2)c(Cc2cc(F)c(F)c(F)c2)c(=O)n(-c2cncc(Cl)c2)c1=O [Compound I-059] | < 10 | < 100 |  |  | 
Cc1cncc(-n2c(=O)c(Cc3cc(F)c(F)c(F)c3)c(-c3ccc(C)c(C)c3)n(CC#N)c2=O)c1 [Compound I-060] | 4.7 |  |  |  | 19
N#CCn1c(N2Cc3cn[nH]c3C2)c(Cc2cc(F)c(F)c(F)c2)c(=O)n(-c2cncc(Cl)c2)c1=O [Compound I-064] | < 10 | < 100 |  |  | 
Cc1cncc(-n2c(=O)c(Cc3cc(F)c(F)c(F)c3)c(-c3ccc(C)c(C)c3)n(C(C)(C)C#N)c2=O)c1 [Compound I-065] | < 10 | < 100 |  |  | 
